Measured values taken from ChEMBL document CHEMBL5241111, “Non-steroidal anti-inflammatory drugs: recent advances in the use of synthetic COX-2 inhibitors” (RSC Med Chem, 2022).
Each block holds one compound with its values, some of them ahead of it.

Tests used:
[1] = molecular target: cGMP-specific 3',5'-cyclic phosphodiesterase (Homo sapiens) (UniProt O76074); assay: Inhibition of human PDE5 using cGMP as substrate at 10 uM preincubated for 5 mins followed by substrate addition and measured after 30 mins by HPLC analysis relative to control; settings: time 35.0 min
[2] = molecular target: T1, Prostaglandin G/H synthase 2 (Homo sapiens, UniProt P35354); assay: Inhibition of human COX-2 using arachidonic acid as substrate preincubated for 10 mins followed by substrate addition and measured after 30 secs by ELISA
T1 sequence (P35354 whole entry): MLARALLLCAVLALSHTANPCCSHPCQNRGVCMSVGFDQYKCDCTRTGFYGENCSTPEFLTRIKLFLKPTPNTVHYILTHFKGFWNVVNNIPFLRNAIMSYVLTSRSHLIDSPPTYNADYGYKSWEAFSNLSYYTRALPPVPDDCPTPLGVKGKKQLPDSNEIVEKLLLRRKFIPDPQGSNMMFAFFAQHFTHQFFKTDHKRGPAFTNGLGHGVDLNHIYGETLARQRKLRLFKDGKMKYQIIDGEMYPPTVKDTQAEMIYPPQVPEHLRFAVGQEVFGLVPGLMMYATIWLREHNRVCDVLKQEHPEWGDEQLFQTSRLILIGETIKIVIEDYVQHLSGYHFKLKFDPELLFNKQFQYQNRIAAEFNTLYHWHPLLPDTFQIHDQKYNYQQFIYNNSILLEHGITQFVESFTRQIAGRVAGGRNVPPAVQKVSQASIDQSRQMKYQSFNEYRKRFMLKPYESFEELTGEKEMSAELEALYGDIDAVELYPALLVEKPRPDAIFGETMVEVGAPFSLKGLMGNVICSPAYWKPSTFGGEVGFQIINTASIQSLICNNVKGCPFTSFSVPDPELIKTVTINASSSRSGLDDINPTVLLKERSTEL

[3] = molecular target: T2, Polyunsaturated fatty acid 5-lipoxygenase (Homo sapiens, UniProt P09917); assay: Inhibition of 5-LOX (unknown origin)
T2 sequence (P09917 whole entry): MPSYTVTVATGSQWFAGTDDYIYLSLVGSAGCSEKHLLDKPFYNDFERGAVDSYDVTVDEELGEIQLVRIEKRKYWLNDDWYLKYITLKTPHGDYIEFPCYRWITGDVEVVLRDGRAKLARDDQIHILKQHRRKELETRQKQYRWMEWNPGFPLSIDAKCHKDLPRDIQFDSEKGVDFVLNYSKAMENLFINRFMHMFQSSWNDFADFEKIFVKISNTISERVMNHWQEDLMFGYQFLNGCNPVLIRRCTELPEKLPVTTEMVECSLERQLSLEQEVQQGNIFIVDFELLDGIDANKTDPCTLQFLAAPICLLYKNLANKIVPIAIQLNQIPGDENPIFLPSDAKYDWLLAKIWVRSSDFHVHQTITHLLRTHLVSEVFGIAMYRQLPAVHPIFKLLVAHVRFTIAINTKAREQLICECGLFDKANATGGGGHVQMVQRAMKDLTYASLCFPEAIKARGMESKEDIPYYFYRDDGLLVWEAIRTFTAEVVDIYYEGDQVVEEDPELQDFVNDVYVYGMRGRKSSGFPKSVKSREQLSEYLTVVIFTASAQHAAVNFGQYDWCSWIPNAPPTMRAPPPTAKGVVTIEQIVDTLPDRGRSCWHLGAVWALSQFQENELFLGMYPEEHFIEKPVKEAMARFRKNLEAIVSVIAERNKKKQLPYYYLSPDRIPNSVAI

Rattus norvegicus = assay: Antiinflammatory activity against rat model of carrageenan induced paw edema assessed as inhibition of edema measured after 1 to 6 hrs relative to control; type: functional; settings: time 1-6 hrs
[4] = molecular target: T1, Prostaglandin G/H synthase 2; assay: Inhibition of human COX-2 using arachidonic acid as substrate preincubated for 5 mins followed by substrate addition and measured after 2 mins by colorimetric assay
[5] = molecular target: T1, Prostaglandin G/H synthase 2; assay: Inhibition of human recombinant COX-2 using arachidonic acid as substrate preincubated for 5 mins followed by substrate addition and measured after 10 mins by microplate reader analysis
[6] = molecular target: T1, Prostaglandin G/H synthase 2; assay: Inhibition of human COX-2 using arachidonic acid as substrate incubated for 30 secs by ELISA
[7] = molecular target: COX-1/COX-2 (Homo sapiens) (UniProt P35354+P23219); assay: Selectivity index, ratio of IC50 for inhibition of COX-1 (unknown origin) to IC50 for inhibition of COX-2 (unknown origin); type: protein assay
[8] = Inhibition of soybean 5-LOX using linoleic acid as substrate preincubated for 5 mins followed by substrate addition and measured after 3 mins; design: species or system Glycine max
Dihydrofolate reductase = molecular target: T3, Dihydrofolate reductase (Homo sapiens, UniProt P00374); assay: Inhibition of DHFR (unknown origin)
T3 sequence (P00374 whole entry): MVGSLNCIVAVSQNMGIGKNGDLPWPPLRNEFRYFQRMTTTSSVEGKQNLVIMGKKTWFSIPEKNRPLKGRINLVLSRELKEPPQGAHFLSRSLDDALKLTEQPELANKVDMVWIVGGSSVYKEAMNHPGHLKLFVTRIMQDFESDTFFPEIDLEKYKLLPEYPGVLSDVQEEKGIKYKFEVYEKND

[9] = molecular target: T1, Prostaglandin G/H synthase 2; assay: Inhibition of COX-2 (unknown origin)
Alpha-glucosidase = Alpha-glucosidase (Saccharomyces cerevisiae S288c, UniProt P53341+P38158+P07265); assay: Inhibition of Saccharomyces cerevisiae alpha-glucosidase using PNPG as substrate preincubated for 10 mins followed by substrate addition by spectrophotometric method; type: protein assay

inhibition [1]: 100%
SMILES: C/C(=C/C(=O)Nc1nccs1)Nc1ccc(Cl)cc1

IC50 [2]: 0.047 µM
IC50 [3]: 0.6 µM
SMILES: O=c1[nH]n2c(=O)c3ccccc3nc2/c1=C/c1ccc(Cl)cc1

SMILES: COc1ccc(-c2cc(-c3ccc(F)cc3)n(-c3ccc(S(N)(=O)=O)cc3)n2)cc1OC
inhibition (INH) (Rattus norvegicus): 42.1%

IC50 [4]: 6.8 µM
SMILES: CCCCCC1C(C)=c2c(OCc3nnc(SCC(=O)N4CCN(c5ccccc5)CC4)o3)nn(C)c(=O)c2=C1C (stereo not given)

IC50 [5]: 0.15 µM
SMILES: CC1=NN(c2ccc(S(N)(=O)=O)cc2)C(=O)/C1=C\c1cccc(OCc2ccccc2)c1

IC50 [6]: 0.131 µM
Ratio IC50 [7]: 0.008
SMILES: NS(=O)(=O)c1ccc(C(=O)OCCn2cc(-c3ccc(C(F)(F)F)cc3)nn2)cc1

IC50 [8]: 48.9 µM
SMILES: COC(=O)/C(=C/c1ccccc1)NC(=O)[C@H](CC(=O)O)NC(=O)[C@@H](C)c1ccc2cc(OC)ccc2c1

IC50 [6]: 0.226 µM
Ratio IC50 [7]: 0.008
SMILES: CS(=O)(=O)c1ccc(-n2cc(-c3ccc(C(F)(F)F)cc3)nn2)cc1

inhibition [1]: 100%
SMILES: C/C(=C/C(=O)Nc1nccs1)Nc1ccccc1

IC50 [5]: 0.15 µM
SMILES: CC1=NN(c2ccc(S(N)(=O)=O)cc2)C(=O)/C1=C\c1sccc1C

IC50 (Dihydrofolate reductase): 0.13 µM
SMILES: Nc1ccc(S(=O)(=O)Nc2ncccn2)cc1 [SULFADIAZINE]

IC50 [9]: 2.61 µM
Ratio IC50 [7]: 1.95
SMILES: Cc1c(C(=O)NNC(=S)Nc2ccccc2)nnn1-c1ccc(S(N)(=O)=O)cc1

IC50 [4]: 6.8 µM
SMILES: CC1=c2c(OCc3nnc(SCC(=O)N4CCN(c5ccccc5)CC4)o3)nn(C)c(=O)c2=C(C)C1c1ccccc1 (stereo not given)

IC50 (Dihydrofolate reductase): 0.28 µM
SMILES: COc1cc(/C=C2\N=C(c3ccccc3)N(c3ccc(C(=O)O)cc3)C2=O)ccc1OC(=O)c1ccccc1

IC50 [8]: 48.9 µM
SMILES: COc1ccc2cc([C@H](C)C(=O)N[C@@H](CCSC)C(=O)N/C(=C\c3ccccc3)C(=O)O)ccc2c1

IC50 [9]: 2.61 µM
Ratio IC50 [7]: 1.95
SMILES: CCC(=O)c1nnn(-c2ccc(S(N)(=O)=O)cc2)c1C

IC50 [8]: 22 µM
SMILES: COc1ccc2cc([C@H](C)C(=O)O)ccc2c1 [NAPROXEN]

SMILES: CC(=O)Oc1cc2oc(-c3ccc(C)cc3)cc2cc1-c1c[se]nn1
IC50 (Alpha-glucosidase): 1.03 µM

IC50 [2]: 0.047 µM
IC50 [3]: 0.6 µM
SMILES: COc1ccc(/C=c2\c(=O)[nH]n3c(=O)c4ccccc4nc23)cc1

IC50 [2]: 0.047 µM
IC50 [3]: 0.6 µM
SMILES: COc1ccccc1/C=c1\c(=O)[nH]n2c(=O)c3ccccc3nc12

IC50 [6]: 0.017 µM
Ratio IC50 [7]: 0.008
SMILES: O=Cc1cn(-c2ccc(Br)cc2)nc1-c1ccc(Br)cc1

IC50 (Dihydrofolate reductase): 0.28 µM
SMILES: NS(=O)(=O)c1ccc(N2C(=O)/C(=C/c3ccc(OC(=O)c4ccccc4)cc3)N=C2c2ccccc2)cc1

IC50 [9]: 2.61 µM
Ratio IC50 [7]: 1.95
SMILES: Cc1c(C2=NNC(c3ccccc3)C2)nnn1-c1ccc(S(N)(=O)=O)cc1 (stereo not given)

inhibition [1]: 100%
SMILES: COc1ccc(N/C(C)=C\C(=O)Nc2nccs2)cc1

IC50 [6]: 3.32 µM
Ratio IC50 [7]: 0.008
SMILES: NS(=O)(=O)c1ccc(-n2cc(-c3ccc(C(F)(F)F)cc3)nn2)cc1

IC50 [8]: 48.9 µM
SMILES: COc1ccc2cc([C@H](C)C(=O)N[C@@H](Cc3c[nH]c4ccccc34)C(=O)N/C(=C\c3ccccc3)C(=O)O)ccc2c1

IC50 [8]: 48.9 µM
SMILES: C/C=C(\NC(=O)[C@H](Cc1c[nH]c2ccccc12)NC(=O)[C@@H](C)c1ccc2cc(OC)ccc2c1)C(=O)OC

IC50 [2]: 0.047 µM
IC50 [3]: 0.6 µM
SMILES: O=c1[nH]n2c(=O)c3ccccc3nc2/c1=C/c1cccc(F)c1

IC50 [5]: 0.15 µM
SMILES: CCOc1cc(/C=C2\C(=O)N(c3ccc(S(N)(=O)=O)cc3)N=C2C)ccc1O
